Data taken from patent US7115600B2, “Histamine-3 receptor modulators” (Pfizer Inc., priority 2004, dated 2006).

Target: T1, rat histamine H3 receptors (Rattus norvegicus, UniProt Q9QYN8)
T1 construct: Frozen rat frontal brain or frozen human post-mortem frontal brain is homogenized; from tissue; host or cells: rat frontal brain membranes
Assay: Rat Histamine H3 Receptor Binding
Conditions: frozen rat frontal brain membranes; radioligand 1 nM 3H-N-methyl-histamine; 1 hour incubation; read-out: rH3 Ki

T1 sequence (Q9QYN8 whole entry): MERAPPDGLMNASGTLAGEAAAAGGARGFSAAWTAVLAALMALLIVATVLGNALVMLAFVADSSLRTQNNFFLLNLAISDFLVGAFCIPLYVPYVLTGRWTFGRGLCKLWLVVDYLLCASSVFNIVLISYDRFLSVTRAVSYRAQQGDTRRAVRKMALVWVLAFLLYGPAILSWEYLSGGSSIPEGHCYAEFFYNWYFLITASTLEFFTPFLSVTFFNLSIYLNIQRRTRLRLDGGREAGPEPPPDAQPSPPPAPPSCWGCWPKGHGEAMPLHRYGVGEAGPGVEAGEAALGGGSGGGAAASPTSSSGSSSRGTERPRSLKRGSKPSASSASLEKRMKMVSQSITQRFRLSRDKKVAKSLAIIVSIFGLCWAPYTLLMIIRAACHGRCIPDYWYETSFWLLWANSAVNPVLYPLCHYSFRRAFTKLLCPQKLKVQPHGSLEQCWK

Row | Compound | Ki
1 | Fc1cnc(N2CCN(C[C@H]3C[C@@H](c4ccc(CN5CCCC5)cc4)C3)CC2)nc1 [Example 102, cis-5-Fluoro-2-{4-[3-(4-pyrrolidin-1-ylmethyl-phenyl)-cyclobutylmethyl]-piperazin-1-yl}-pyrimidine] | 1.83 nM
2 | C[C@@H]1CC[C@@H](C)N1C[C@H]1C[C@H](c2ccc(CN3CCCC3)cc2)C1 [Example 123, trans-(2R,5R)-2,5-Dimethyl-1-[3-(4-pyrrolidin-1-ylmethyl-phenyl)-cyclobutylmethyl]-pyrrolidine] | 6.84 nM
3 | c1cc([C@H]2C[C@H](CN3CCCC3)C2)ccc1CN1CCCC1 [Example 107, trans-1-[3-(4-Pyrrolidin-1-ylmethyl-phenyl)-cyclobutylmethyl]-pyrrolidine] | 2.09 nM
4 | Fc1cnc(N2CCN(C[C@H]3C[C@H](c4ccc(CN5CCCC5)cc4)C3)CC2)nc1 [Example 112, trans-5-Fluoro-2-{4-[3-(4-pyrrolidin-1-ylmethyl-phenyl)-cyclobutylmethyl]-piperazin-1-yl}-pyrimidine] | 0.77 nM
5 | O=C1CN(C[C@H]2C[C@H](c3ccc(CN4CCCC4)cc3)C2)CCN1 [Example 127, trans-4-[3-(4-Pyrrolidin-1-ylmethyl-phenyl)-cyclobutylmethyl]-piperazin-2-one] | 101 nM
6 | c1cc([C@H]2C[C@@H](CN3CCNCC3)C2)ccc1CN1CCCC1 [Example 101, cis-1-[3-(4-Pyrrolidin-1-ylmethyl-phenyl)-cyclobutylmethyl]-piperazine] | 4.81 nM
7 | C[C@@H]1CN(C[C@H]2C[C@H](c3ccc(CN4CCCC4)cc3)C2)C[C@H](C)O1 [Example 126, trans-(2R,6S)-2,6-Dimethyl-4-[3-(4-pyrrolidin-1-ylmethyl-phenyl)-cyclobutylmethyl]-morpholine] | 1.89 nM
8 | C[C@@H]1CN(C[C@H]2C[C@@H](c3ccc(CN4CCCC4)cc3)C2)C[C@H](C)O1 [Example 106, cis-(2R,6S)-2,6-Dimethyl-4-[3-(4-pyrrolidin-1-ylmethyl-phenyl)-cyclobutylmethyl]-morpholine] | 8.35 nM
9 | CC1CCCCN1C[C@H]1C[C@H](c2ccc(CN3CCCC3)cc2)C1 (relative stereo) [Example 117, trans-2-Methyl-1-[3-(4-pyrrolidin-1-ylmethyl-phenyl)-cyclobutylmethyl]-piperidine] | 0.73 nM
10 | CCCN(CC1CC1)C[C@H]1C[C@H](c2ccc(CN3CCCC3)cc2)C1 [Example 124] | 0.49 nM
11 | CC1CCN(C[C@H]2C[C@H](c3ccc(CN4CCCC4)cc3)C2)CC1 [Example 119, trans-4-Methyl-1-[3-(4-pyrrolidin-1-ylmethyl-phenyl)-cyclobutylmethyl]-piperidine] | 1.34 nM
12 | c1cc([C@H]2C[C@H](CN3CCCCC3)C2)ccc1CN1CCCC1 [Example 108, trans-1-[3-(4-Pyrrolidin-1-ylmethyl-phenyl)-cyclobutylmethyl]-piperidine] | 0.58 nM
13 | Fc1cnc(OCC2CC(c3ccc(CN4CCCC4)cc3)C2)nc1C1CCNCC1 (stereo not drawn) [Example 74, 5-Fluoro-4-piperidin-4-yl-2-[3-(4-pyrrolidin-1-ylmethyl-phenyl)-cyclobutylmethoxy]-pyrimidine] | 12.5 nM
14 | c1cc([C@H]2C[C@@H](CN3CCCCC3)C2)ccc1CN1CCCC1 [Example 104, cis-1-[3-(4-Pyrrolidin-1-ylmethyl-phenyl)-cyclobutylmethyl]-piperidine] | 2.78 nM
15 | Fc1cc(F)cc(COCC2CC(c3ccc(CN4CCCC4)cc3)C2)c1 (stereo not drawn) [Example 14, 1-(4-{-3-[(3,5-Difluoro-phenyl)methoxymethyl]-cyclobutyl}-benzyl)-pyrrolidine] | 79.4 nM

Now from value to compound:

Row | Ki | Compound
16 | 122 nM | N#Cc1ccccc1COCC1CC(c2ccc(CN3CCCC3)cc2)C1 (stereo not drawn) [Example 6, 2-[3-(4-Pyrrolidin-1-ylmethyl-phenyl)-cyclobutylmethoxymethyl]-benzonitrile]
17 | 44.4 nM | COc1ccc(OCC2CC(c3ccc(CN4CCCC4)cc3)C2)nn1 (stereo not drawn) [Example 44, 3-Methoxy-6-[3-(4-pyrrolidin-1-ylmethyl-phenyl)-cyclobutylmethoxy]-pyridazine]
18 | 4.75 nM | Cc1cc(C2CCNC2)nc(OC[C@H]2C[C@@H](c3ccc(CN4CCCC4)cc3)C2)n1 (relative stereo) [Example 66, cis-4-Methyl-6-pyrrolidin-3-yl-2-[3-(4-pyrrolidin-1-ylmethyl-phenyl)-cyclobutylmethoxy]-pyrimidine]
19 | 5.65 nM | Cc1ccc(S(=O)(=O)OCC2CC(c3ccc(CN4CCCC4)cc3)C2)cc1 (stereo not drawn) [Example 4, Toluene-4-sulfonic acid 3-(4-pyrrolidin-1-ylmethyl-phenyl)-cyclobutylmethyl ester]
20 | 68.8 nM | Cc1cc(C(=O)Nc2ccccc2)nc(OC[C@H]2C[C@@H](c3ccc(CN4CCCC4)cc3)C2)n1 [Example 83, cis-6-Methyl-2[3-(4-pyrrolidin-1-ylmethyl-phenyl)-cyclobutylmethoxy]-pyrimidine-4-carboxylic acid phenylamide]
21 | 2.82 nM | CN(Cc1ccccc1)C[C@H]1C[C@H](c2ccc(CN3CCCC3)cc2)C1 [Example 116, trans-Benzyl-methyl-[3-(4-pyrrolidin-1-ylmethyl-phenyl)-cyclobutylmethyl]-amine]
22 | 32 nM | Cc1cnc(C)c(OCC2CC(c3ccc(CN4CCCC4)cc3)C2)n1 (stereo not drawn) [Example 41, 2,5-Dimethyl-3-[3-(4-pyrrolidin-1-ylmethyl-phenyl)-cyclobutylmethoxy]-pyrazine]
23 | 2.71 nM | CN(Cc1cccnc1)C[C@H]1C[C@H](c2ccc(CN3CCCC3)cc2)C1 [Example 122, trans-Methyl-pyridin-3-ylmethyl-[3-(4-pyrrolidin-1-ylmethyl-phenyl)-cyclobutylmethyl]-amine]
24 | 23.2 nM | Cc1ccc(S(=O)(=O)OC[C@H]2C[C@@H](c3ccc(CN4CCCC4)cc3)C2)cc1 [Example 47, cis-Toluene-4-sulfonic acid 3-(4-pyrrolidin-1-ylmethyl-phenyl)-cyclobutylmethyl ester]
25 | 118 nM | COc1ccc(-c2cnc(OC[C@H]3C[C@@H](c4ccc(CN5CCCC5)cc4)C3)nc2)cc1 [Example 92, cis-5-(4-Methoxy-phenyl)-2-[3-(4-pyrrolidin-1-ylmethyl-phenyl)-cyclobutylmethoxy]-pyrimidine]
26 | 74.3 nM | c1cnc(OCC2CC(c3ccc(CN4CCCC4)cc3)C2)cn1 (stereo not drawn) [Example 40, 2-[3-(4-Pyrrolidin-1-ylmethyl-phenyl)-cyclobutylmethoxy]-pyrazine]
27 | 1.77 nM | c1ccc2c(c1)CN(C[C@H]1C[C@H](c3ccc(CN4CCCC4)cc3)C1)C2 [Example 125, trans-2-[3-(4-Pyrrolidin-1-ylmethyl-phenyl)-cyclobutylmethyl]-2,3-dihydro-1H-isoindole]
28 | 110 nM | Cc1nnc(OC[C@H]2C[C@@H](c3ccc(CN4CCCC4)cc3)C2)c2ccccc12 [Example 78, cis-1-Methyl-4-[3-(4-pyrrolidin-1-ylmethyl-phenyl)-cyclobutylmethoxy]-phthalazine]
29 | 33.6 nM | Cc1ccc(C)n1-c1ccc(OC[C@H]2C[C@@H](c3ccc(CN4CCCC4)cc3)C2)nn1 [Example 90, cis-3-(2,5-Dimethyl-pyrrol-1-yl)-6-{[3-(4-pyrrolidin-1-ylmethyl-phenyl)-cyclobutylmethyl]oxy}-pyridazine]
30 | 2.55 nM | c1ccc(C2CCCN2C[C@H]2C[C@H](c3ccc(CN4CCCC4)cc3)C2)nc1 (relative stereo) [Example 109, trans-2-{1-[3-(4-Pyrrolidin-1-ylmethyl-phenyl)-cyclobutylmethyl]-pyrrolidin-2-yl}-pyridine]
